Experimental data published in US20180273970A1, “PLASMID, TRANSFORMED PLANT CELL AND TRANSGENIC PLANT COMPRISING THE SAME, AND METHODS FOR PREPARING A TRANSGENIC PLANT AND FOR INCREASING YIELD OF A PLANT UNDER ABIOTIC STRESSES” (Academia Sinica, priority 2014, published 2018).

Legend:
αAmy3 SRC promoter = assay: Barley aleurone transient expression assay, SRC-35Smp:Luc reporter (luciferase); type: cell-based; details: barley aleurones, 5 μM ABA or 400 mM sorbitol, 24 h
Protocol: FIG. 21. ABA and sorbitol suppress the function of SnRK1A in activation of αAmy3 SRC promoter. Rice embryos and barley aleurones were transfected with reporter SRC-35Smp:Luc with or without effectors, incubated with or without ABA for 24 h, and assayed for luciferase activity. The luciferase activity in embryos or aleurones bombarded with the SRC-35S mp-Luc construct only and in +S medium was set to 1×, and other values were calculated relative to this value. Error bars indicate the SE for three replicate experiments. (A) Plasmid constructs. (B) Barley aleurones were transfected with effector Ubi:SnRK1A, Ubi:SKIN1 or Ubi:SKIN(Ri) alone and reporter SRC-35Smp:Luc, or co-transfected with effectors Ubi:SnRK1A and Ubi:SKIN or Ubi:SKIN(Ri) and reporter SRC-35Smp:Luc. (C) Rice embryos (upper panel) were transfected with or without Ubi:SnRK1A and incubated with or without 1 μM ABA or 50 mM sorbitol, and barley aleurones (lower panel) were transfected with or without Ubi:SnRK1A and incubated with 5 μM ABA or 400 mM sorbitol.
The barley aleurone/endosperm transient expression assays were performed as described (Hong et al., 2012). Each independent experiment consisted of three replicates, with six endosperms for each treatment, and was repeated three times with similar results. Luciferase and GUS activity assays were performed as described (Hong et al., 2012). […]

rice seedlings = assay: Germination and seedling shoot growth in water containing ABA; type: in vivo; details: ABA 1 to 10 μM, 6 days, 28° C., 14-h light/10-h dark
Protocol: FIG. 9. The expression of SKIN is induced by various abiotic stresses and ABA, and SKINs promote the ABA sensitivity. (A) Total RNA was purified from leaves of 2-week-old rice seedlings that had been air dried, treated with 200 mM salt, incubated at 4° C., or treated with 1 μM ABA, or from embryos of seedlings grown underwater (hypoxia), for various lengths of time. RNAs were subjected to quantitative RT-PCR analysis using primers specific for SKIN1 and SKIN2. The highest mRNA level was set as 100%. The lowest mRNA level was assigned a value of 1× and mRNA levels of other samples were calculated relative to this value. Error bars indicate the SE for three replicate experiments. (B) Seeds of transgenic lines SKIN1-Ox(O3), SKIN1-Ri(R3), SKIN2-Ox(02) and SKIN2-Ri(R1) were germinated and grown in water containing various concentrations of ABA at 28° C. under a 14-h light/10-h dark cycle for 6 days. Lengths of shoots were measured. Error bars represent SE (n=8) at significance levels: * p<0.1, ** p<0.05. For photos of treated seedlings, see also FIG. 20 online.
FIG. 20. Growth of transgenic rice overexpressing SKIN is more sensitive to ABA inhibition. Seeds of transgenic lines SKIN1-Ox(O3), SKIN1-Ri(R3), SKIN2-Ox(02) and SKIN2-Ri(R1) were germinated and grown in water containing various concentrations of ABA for 6 days at 28 C under a 14-h light/10-h dark cycle. […]

MYBS1-GFP = assay: Cellular localization of MYBS1-GFP in transfected barley aleurones (confocal microscopy); type: cell-based; details: −S medium containing ABA, 48 h
Protocol: (§1) FIG. 10. ABA restricts SKINs, SnRK1A and MYBS1 in the cytoplasm under sugar starvation. Barley aleurones were co-transfected with indicated plasmid constructs and incubated in +S or −S medium with ABA (+ABA) or without ABA (−ABA) for 48 h. Thirty optical sections of 0.9-1.1 μm thickness were prepared for each cell and only five regularly spaced sections (sections 3, 9, 15, 21 and 27) are shown here. C and N indicate higher GFP signals, and c and n indicate lower GFP signals in the cytoplasm and nucleus, respectively. For more section images of each cell, see also FIG. 22 online. (A) Barley aleurones were transfected with Ubi:SKIN1-GFP, Ubi:SKIN2-GFP, Ubi:SnRK1A-GFP or Ubi:MYBS1-GFP alone. (B) Barley aleurones were transfected with Ubi.MYBS1-GFP alone (panel 1) or co-transfected with Ubi.MYBS1-GFP and Ubi:SnRK1A (panel 2), or with Ubi.MYBS1-GFP and Ubi:SnRK1A(Ri) (panel 3). (C) Barley aleurones were co-transfected with Ubi:SnRK1A-GFP and Ubi:SKIN(Ri). (D) Wild type rice (WT) or transgenic rice overexpression Ubi:SKIN(Ri) were transfected with Ubi:SnRK1A-GFP (panels 1-3) or Ubi.MYBS1-GFP (panels 4-6).
Detection of cellular localization of SKIN-GFP, SnRK1A-GFP and MYBS1-GFP fusion proteins were performed as described (Hong et al., 2012). […]

SnRK1A-GFP = assay: Cellular localization of SnRK1A-GFP in transfected barley aleurones (confocal microscopy); type: cell-based; details: 48 h; for % of total cells with SnRK1A-GFP in location [drawing 1] (nucleus) / % of total cells with SnRK1A-GFP in location [drawing 2] (cytoplasm) / Number of cells with SnRK1A-GFP in location [drawing 1] (nucleus) / Number of cells with SnRK1A-GFP in location [drawing 2] (cytoplasm): +ABA
Protocol: as §1
Detection of cellular localization of SKIN-GFP, SnRK1A-GFP and MYBS1-GFP fusion proteins were performed as described (Hong et al., 2012). Embryoless barley and rice seeds were sterilized with 1% NaOCl for 30 mins, and incubated in a buffer containing 20 mM CaCl2 and 20 mM sodium succinate, pH 5.0, for 4 days. Aleurone layers were isolated by scratching away starch in the endosperm with a razor blade. Four aleurone layers were arranged in a 10-cm dish for bombardment. Aleurone layers expressing GFP were examined with a Ziess confocal microscope (LSM510META) using a 488-nm laser line for excitation and a 515- to 560-nm long pass filter for emission.

CC1=CC(=O)CC(C)(C)[C@@]1(O)/C=C/C(C)=C\C(=O)O [ABA, abscisic acid]
Effect on αAmy3 SRC promoter (luciferase activity), alone and SnRK1A-activated (αAmy3 SRC promoter): suppressed
Degree of inhibition on growth of wild type and all transgenic lines (rice seedlings): increased with ABA concentrations from 1 to 10 μM
Localization of MYBS1-GFP (MYBS1-GFP): exclusively localized in the cytoplasm
% of total cells with SnRK1A-GFP in location [drawing 1] (nucleus) (SnRK1A-GFP; +S medium): 15.8%
% of total cells with SnRK1A-GFP in location [drawing 2] (cytoplasm) (SnRK1A-GFP; +S medium): 84.2%
Number of cells with SnRK1A-GFP in location [drawing 1] (nucleus) (SnRK1A-GFP; +S medium): 6
Number of cells with SnRK1A-GFP in location [drawing 2] (cytoplasm) (SnRK1A-GFP; +S medium): 32
Localization of SnRK1A-GFP (SnRK1A-GFP; −S medium containing ABA): exclusively localized in the cytoplasm
% of total cells with SnRK1A-GFP in location [drawing 1] (nucleus) (SnRK1A-GFP; −S medium): 8.0%
% of total cells with SnRK1A-GFP in location [drawing 2] (cytoplasm) (SnRK1A-GFP; −S medium): 92.0%
Number of cells with SnRK1A-GFP in location [drawing 1] (nucleus) (SnRK1A-GFP; −S medium): 7
Number of cells with SnRK1A-GFP in location [drawing 2] (cytoplasm) (SnRK1A-GFP; −S medium): 81
